These results are taken from patent US20240197805A1, “COMPOSITE FOR RELIEVING […], PREPARATION METHOD THEREFOR, USE THEREOF, DRUG, FOOD AND HEALTH-CARE PRODUCT” (INFINITUS ( CHINA ) COMPANY LTD., priority 2022, published 2024).

What all share (assay type): in vivo
Test [1] relates to ICR mice. Kind of test: Pentobarbital sodium subthreshold dose hypnosis test. Particulars: mice gavaged 14 days (250 mg/kg samples; GABA 100 mg/kg); pentobarbital sodium 30 mg/kg BW i.p.; animals asleep within 30 min; *p<0.05, **p<0.01 vs blank group. From the text: (§1) • 1. Principle: a pentobarbital sodium subthreshold dose hypnosis test, a sleep latency test and a sleep extension time change test are common test methods for a sleep improvement performance of a health-care food. The method takes a disappearance of a righting reflex as an observation index and is specifically represented as follows: when a mouse is placed on the back to lie, if the mouse cannot turn over for more than 60 s, the righting reflex is considered to disappear, and the mouse falls sleep; if a body position can be righted immediately (within 5 s), the righting reflex is considered to be recovered and the mouse is in a waking state; and a time from the disappearance of the righting reflex to the recovery is an animal sleeping time. • 2. Materials: ICR mice come from the Experimental Animal Center of Zhejiang Academy of Medical Sciences and have the production license number of SCXK (Zhe). The mice are all male, weigh 18 to 22 g and are divided into 10 mice/group. The mice are adapted to the environment in an SPF animal room for 5 to 7 days, wherein environment conditions of the SPF animal room are as follows: a temperature of 20 to 26° C., a humidity of 40% to 70%, and light and shade alternation time of 12 h/12 h. • 3. […]

Test [2] has as its system ICR mice. Kind of test: Sleep latency experiment (pentobarbital sodium). The following applies: mice gavaged 14 days (250 mg/kg samples; GABA 100 mg/kg); pentobarbital sodium 200 mg/kg BW i.p.; *p<0.05 vs blank group.
Source text: as §1

The subject of test [3] is ICR mice. Kind of test: Sleep extension time change experiment (pentobarbital sodium). Particulars: mice gavaged 14 days (250 mg/kg samples; GABA 100 mg/kg); pentobarbital sodium 30 mg/kg BW i.p.; *p<0.05, **p<0.01 vs blank group.
Source text: as §1

Regarding `NCCCC(=O)O` [Positive control, y-aminobutyric acid], the Sleeping rate in the test with ICR mice [1] is given as 90.00** %. Besides, the “Sleep latency x ± s” value with ICR mice [2] was 5.60 ± 1.48* min. Further, in the test on ICR mice [3], the “Sleeping time x ± s” value was 92.36 ± 16.67** min.
